The target in one assay is human CYP11B2 (Homo sapiens (Human), UniProt P19099). In words: V79-Human-CYP11B2 cell assay. In kind it is cell-based. The following applies: V79 cells stably expressing human CYP11B2; 125 nM 11-deoxycorticosterone substrate; aldosterone measured by HTRF. Here is the method: (§1) Methods for V79-Human-CYP11B2 and V79-Human-CYP11B1 Assays:
(§2) V79 cell lines stably expressing the either the human CYP11B2 or the human CYP11B1 enzyme were generated using a standard transfection protocol. V79 cells were transfected with plasmids pTriEx3-Hygro-hCyp11B2 or pTriEx3-Hygro-hCyp11B1 using Lipofectamine2000 reagent. V79 cells that stably express the human CYP11B2 or human CYP11B1 enzyme were selected for and maintained in DMEM supplemented with 10% FBS and 400 μg/mL hygromycin for ˜2 weeks. Single cell clones were generated by […] in DMEM supplemented with 10% FBS and 400 μg/mL hygromycin until single colonies were obtained. […] For testing of inhibitors, cells were harvested at 80% confluency with 0.5% Trypsan-EDTA, washed once in PBS, and reconstituted in DMEM+0.1% BSA media at a cell concentration of 600,000 cells/mL for the CYP11B2 assay and 280,000 cells/mL for the CYP11B1 assay. 25 μL of cells were added to a 384 well tissue culture treated plate and mixed with 0.3 μL of inhibitor or DMSO (1% final DMSO concentration) for 1 hour at 37° C., 5% CO2. […] The reaction was carried out for 3 hours at 37° C., 5% CO2 and was stopped by harvesting the supernatants. The amount of product in the supernatant (aldosterone for CYP11B2 assay and cortisol for the CYP11B1 assay) was measured using HTRF-based assay kit (Aldosterone HTRF-CisBio#64ALDPEB, Cortisol HTRF-CisBio #63IDC002-CORT). IC50s for the inhibitor were determined by plotting the amount of product formed against the concentration of inhibitor using sigmoidal dose-response curve (variable slope) fit in GraphPad.
(TR-FRET usually uses a lanthanide donor and a delayed reading to cut background.)

In another assay the target is human CYP11B1 (Homo sapiens (Human), UniProt P15538). In words: V79-Human-CYP11B1 cell assay. In kind it is cell-based. The following applies: for inhibition at 10 µM: starred values of the CYP11B1 column; for IC50: V79 cells stably expressing human CYP11B1, 250 nM 11-deoxycortisol substrate, cortisol measured by HTRF. Here is the method:
as §1, §2

SMILES strings stand for the structures.

Chain of human CYP11B1 (P15538 25-503): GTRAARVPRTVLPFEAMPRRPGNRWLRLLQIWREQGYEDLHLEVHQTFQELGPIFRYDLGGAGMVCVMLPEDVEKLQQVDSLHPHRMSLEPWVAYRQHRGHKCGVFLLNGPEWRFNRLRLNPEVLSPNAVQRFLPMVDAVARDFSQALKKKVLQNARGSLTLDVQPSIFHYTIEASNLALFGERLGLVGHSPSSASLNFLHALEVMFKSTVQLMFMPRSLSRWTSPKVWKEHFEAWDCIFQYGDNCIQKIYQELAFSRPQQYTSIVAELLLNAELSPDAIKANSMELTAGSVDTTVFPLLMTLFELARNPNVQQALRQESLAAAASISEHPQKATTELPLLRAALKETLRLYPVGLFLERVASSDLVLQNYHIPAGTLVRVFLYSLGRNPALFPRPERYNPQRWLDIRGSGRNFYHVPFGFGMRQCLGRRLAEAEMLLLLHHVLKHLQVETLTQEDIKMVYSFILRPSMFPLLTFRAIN
Chain of human CYP11B2 (P19099 25-503): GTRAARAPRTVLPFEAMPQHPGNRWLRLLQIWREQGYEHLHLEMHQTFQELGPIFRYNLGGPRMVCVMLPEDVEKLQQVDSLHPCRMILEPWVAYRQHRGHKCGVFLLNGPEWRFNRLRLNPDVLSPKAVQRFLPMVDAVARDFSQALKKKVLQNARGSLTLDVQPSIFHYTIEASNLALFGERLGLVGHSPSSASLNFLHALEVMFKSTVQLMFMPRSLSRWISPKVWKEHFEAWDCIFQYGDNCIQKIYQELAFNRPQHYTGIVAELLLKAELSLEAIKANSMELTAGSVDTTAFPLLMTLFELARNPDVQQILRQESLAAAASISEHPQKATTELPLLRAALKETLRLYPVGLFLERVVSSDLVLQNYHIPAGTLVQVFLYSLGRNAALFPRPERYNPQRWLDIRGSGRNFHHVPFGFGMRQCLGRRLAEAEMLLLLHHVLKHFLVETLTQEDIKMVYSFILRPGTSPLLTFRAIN

One may read the IC50 as the point on the concentration scale where inhibition reaches its midpoint. Lower therefore signals greater potency in that assay. Usually inhibition stands for the percentage by which the read-out fell short of the control. Lower therefore signals a weak effect. For the molecule `Cc1ccncc1-c1cn2cc(F)ccc2n1` [Example 6, 6-fluoro-2-(4-methylpyridin-3-yl)imidazo[1,2-a]pyridine], the IC50 against human CYP11B2 amounted to 22.4 nM. For the same molecule, on human CYP11B1, the inhibition at 10 µM stood at 63%.

Take `Cc1c(-c2cncc(F)c2)nc2cc(F)ccn12` [Example 26, 7-fluoro-2-(5-fluoropyridin-3-yl)-3-methylimidazo[1,2-a]pyridine]: the IC50 came to 4.7 nM against human CYP11B2 and 912 nM against human CYP11B1.

Take `Cc1c(-c2cncc3ccccc23)nc2ccc(F)cn12` [Example 25]: the IC50 against human CYP11B2 stood at 0.1 nM; against human CYP11B1 it was 14.8 nM.

With `Cc1ccncc1-c1nc2ccc(F)cn2c1C` [Example 20, 6-fluoro-3-methyl-2-(4-methylpyridin-3-yl)imidazo[1,2-a]pyridine], the 50% inhibitory concentration (IC50) at human CYP11B2 was determined as 2.2 nM; on human CYP11B1, 135 nM.

In the case of `COc1cncc(-c2nc3ccc(F)cn3c2C)c1` [Example 18, 6-fluoro-3-methyl-2-(5-methoxypyridin-3-yl)imidazo[1,2-a]pyridine], the half-maximal inhibitory concentration (IC50) on human CYP11B2 came out at 0.3 nM; against human CYP11B1, 32.4 nM.

Turning to `Cc1cncc(-c2cn3cc(F)ccc3n2)c1` [Example 7, 6-fluoro-2-(5-methylpyridin-3-yl)imidazo[1,2-a]pyridine], half-maximal inhibition on human CYP11B2 (IC50) required 56.2 nM. The molecule also came in with an inhibition at 10 µM at human CYP11B1 of 60%.

`Cc1cncc(-c2nc3ccc(F)cn3c2C)c1` [Example 19, 6-fluoro-3-methyl-2-(5-methylpyridin-3-yl)imidazo[1,2-a]pyridine]: the IC50 against human CYP11B2 stood at 0.45 nM; against human CYP11B1, 40.7 nM.

The values above are taken from patent publication US9518055B2, “Imidazopyridyl compounds as aldosterone synthase inhibitors” (Merck Sharp & Dohme Corp., priority 2011, dated 2016).
